Laboratory results reported in patent publication US20240376092A1 (priority 2021, published 2024).
Where two headings read alike, the source gives them in different places.

Experiments:
naive HEK293 cells = assay: Intrinsic toxicity in naive HEK293 cells (MTT); type: cell-based; conditions: 8-point dose-response curve, 48 h
From the text: FIG. 3. Dose-response analysis of selected compounds. (A) Chemical structures of the selected molecules are shown in panel. (B) A dose-response analysis using the DBCA was employed to evaluate the anti-ΔCR PrP effects of the different molecules. The graphs show a quantification of the dose-dependent, rescuing effect of each molecule. Average values were obtained from a minimum of 3 independent experiments (n≥3), and expressed as a percentage of cell viability in untreated cells. Data were fitted to a sigmoidal function using a 4-parameter logistic (4PL) non-linear regression model, allowing the estimation of the half-maximal inhibitory concentration (IC50). (C) The intrinsic toxicity of each compound was evaluated in naive HEK293 cells, exposed to each molecule/concentration for 48 h at 37° C. Cytotoxicity was evaluated by MTT. Average values were obtained from a minimum of 3 independent experiments (n≥3), and expressed as a percentage of cell viability in untreated cells. Data were fitted to an inverse sigmoidal function using a 4PL non-linear regression model, allowing the estimation of the half-maximal toxicity dose (LD50).
The DBCA was performed as described previously^24, with minor modifications. Briefly, HEK293 cells expressing ΔCR PrP were cultured at ˜60% confluence in 24-well plates on day 1. On day 2, cells were treated with 500 μg/mL of Zeocinfor. Medium (containing fresh Zeocin and/or compound or vehicle) was replaced every 24 hr. On day 5, cell medium was removed and cells were incubated with 1 mg/mL of 3-(4,5-dimethylthiazol-2-yl)-2,5-diphenyltetrazolium bromide (MTT, Sigma Aldrich, St. Louis, MO) in PBS for 30 min at 37° C. MTT was carefully removed, and cells were re-suspended in 500 μL of DMSO. Values for each well were obtained by measuring at 570 nm, using a plate spectrophotometer (Biotek).

[1] = tested on: HEK293 cells expressing ΔCR PrP; assay: cells; type: cell-based; parameters: Emax: dose or concentration left out as unconfirmed; conditions: for Emax / Emax at 1 µM: HEK293, 48 h, read-out: % RMAX: maximum rescuing effect, expressed as percentage of the effect of SM3(LD24) at the same concentration; for IC50: HEK293, read-out: IC50 (rescuing dose at 50%)
FXR = type: cell-based, mouse
DC2 = type: cell-based, mouse
in vitro = conditions: rat, microsomes
PrPC [2] = conditions: HEK293 WT PrPC, 48 hours
[3] = target: T1, full-length human recombinant PrPC (Homo sapiens, UniProt P04156); type: binding; conditions: 0.1-1000 μM, highest concentration 1 mM
[4] = mouse, in vivo
Fyn kinase = type: cell-based, mouse
[5] = tested on: primary hippocampal neurons; type: cell-based, mouse
PrPC [6] = type: cell-based, mouse; conditions: especially in DC2
M1000 prion strain = tested on: M1000 prion strain; parameters: species or system mouse; conditions: slices treated with M1000 prion lysate
cDC2 = type: cell-based, mouse
[7] = target: T1, full-length human recombinant PrPC; conditions: cited from earlier work

Molecule | LD50 (lethal dose at 50%) (naive HEK293 cells) [µM] | Emax [1] [%] | IC50 [1] [nM] | also measured
O=C(CN1c2ccc(Br)cc2-c2ccccc2S1(=O)=O)NC1CCCCC1 [SM3, 2-(9-Bromo-5,5-dioxido-6H-dibenzo[c,e][1,2]thiazin-6-yl)-N-cyclohexylacetamide, reference compound] | >100 | 100 | 1100 | –
O=C(CN1c2cc(Br)ccc2-c2ccccc2S1(=O)=O)NC1CCCCC1 [SM228, 2-(8-Bromo-5,5-dioxido-6H-dibenzo[c,e][1,2]thiazin-6-yl)-N-cyclohexylacetamide] | 37.46 | 123 | 210 | –
O=C(CN1c2cccc(Br)c2-c2ccccc2S1(=O)=O)NC1CCCCC1 [SM229, 2-(10-bromo-5,5-dioxido-6H-dibenzo[c,e][1,2]thiazin-6-yl)-N-cyclohexylacetamide] | 28.21 | 121 | 250 | –
O=C(CN1c2ccc(C(F)(F)F)cc2-c2ccccc2S1(=O)=O)NC1CCCCC1 [SM231, N-cyclohexyl-2-[5,5-dioxido-9-(trifluoromethyl)-6H-dibenzo[c,e][1,2]thiazin-6-yl]acetamide] | 22.4 | 140 | 140 | FXR transcriptional activity (FXR, Nr0b2 mRNA) (FXR): promoted significant FXR transcriptional activity; expansion of FoxP3+ LAP+ Treg cells by treated DC2 (DC2): favor the expansion of T cells expressing Treg cell markers FoxP3 and LAP; half-life (in vitro): 25 min; total PrPC expression (PrPC [2]): no difference in PrPC expression was found; binding to recombinant PrPC by DMR [3]: no interaction was observed; EAE clinical score / disease severity [4]: reduced disease as compared to control mice; secretion of IL-17A and GM-CSF by CD4+ T cells from cervical lymph nodes re-stimulated with MOG [4]: reduced secretion of inflammatory cytokines; white matter demyelination and inflammatory infiltrates [4]: reduced; effect on Aβ-induced Fyn phosphorylation (Fyn kinase): completely abrogated Aβ effects; effect on Aβ-induced decrease of post-synaptic markers (GluN2A, GluN2B, GluA1, GluA2, PSD-95) [5]: significantly rescued the levels of all the post-synaptic markers; PrPC level in DC1 and DC2 (PrPC [6]): slightly increases
O=C(CN1c2ccc(C(F)(F)F)cc2-c2ccccc2S1(=O)=O)Nc1ccnc(Cl)c1 [SM880, N-(2-chloropyridin-4-yl)-2-[5,5-dioxido-9-(trifluoromethyl)-6H-dibenzo[c,e][1,2]thiazin-6-yl]acetamide] | – | – | – | Emax at 1 µM [1]: 78.3%
O=C(CN1c2ccc(C(F)(F)F)cc2-c2ccc(F)cc2S1(=O)=O)NN1CCOCC1 [SM881, 2-[3-Fluoro-5,5-dioxido-9-(trifluoromethyl)-6H-dibenzo[c,e][1,2]thiazin-6-yl]-N-morpholin-4-ylacetamide] | >100 | 150 | 32 | –
O=C(CN1c2ccc(C(F)(F)F)cc2-c2ccc(F)cc2S1(=O)=O)NC1CCCCC1 [SM882, N-cyclohexyl-2-(3-fluoro-5,5-dioxido-9-(trifluoromethyl)-6H-dibenzo[c,e][1,2]thiazin-6-yl)acetamide] | >100 | 139 | 44 | –
CCOc1ccc2c(c1)S(=O)(=O)N(CC(=O)NC1CCCCC1)c1ccc(C(F)(F)F)cc1-2 [SM883, N-cyclohexyl-2-(3-ethoxy-5,5-dioxido-9-(trifluoromethyl)-6H-dibenzo[c,e][1,2]thiazin-6-yl)acetamide] | >100 | 166 | 14 | –
CCC(CC)NC(=O)CN1c2ccc(C(F)(F)F)cc2-c2ccc(F)cc2S1(=O)=O [SM884, N-(1-Ethylpropyl)-2-[3-fluoro-5,5-dioxido-9-(trifluoromethyl)-6H-dibenzo[c,e][1,2]thiazin-6-yl]acetamide] | >100 | 211 | 18 | rescue of long-term potentiation (LTP) (M1000 prion strain; 0.03 μM): 71%; rescue of long-term potentiation (LTP) (M1000 prion strain; 0.1 μM): 34%
O=C(CN1c2ccc(C(F)(F)F)cc2-c2ccc(F)cc2S1(=O)=O)NC1CCOCC1 [SM885, 2-[3-Fluoro-5,5-dioxido-9-(trifluoromethyl)-6H-dibenzo[c,e][1,2]thiazin-6-yl]-N-(tetrahydro-2H-pyran-4-yl)acetamide] | >100 | 123 | 53 | –
O=C(CN1c2ccc(C(F)(F)F)cc2-c2ccccc2S1(=O)=O)NC(CCO)CCO [SM887, 2-[5,5-dioxido-9-(trifluoromethyl)-6H-dibenzo[c,e][1,2]thiazin-6-yl]-N-[3-hydroxy-1-(2-hydroxyethyl)propyl]acetamide] | – | – | – | antigen-specific CD4+ T cell proliferation after cDC2 treatment (cDC2): significantly affected; Emax at 1 µM [1]: ~50%
O=C(CN1c2ccc(C(F)(F)F)cc2-c2ccc(F)cc2S1(=O)=O)NC(CCO)CCO [SM888, 2-[3-Fluoro-5,5-dioxido-9-(trifluoromethyl)-6H-dibenzo[c,e][1,2]thiazin-6-yl]-N-[3-hydroxy-1-(2-hydroxyethyl)propyl]acetamide] | – | – | – | antigen-specific CD4+ T cell proliferation after cDC2 treatment (cDC2): suppress antigen-specific CD4+ T cell proliferation; Emax at 1 µM [1]: ~50%
CCC(CN(C)C)NC(=O)CN1c2ccc(C(F)(F)F)cc2-c2ccc(F)cc2S1(=O)=O (stereo not drawn) [SM889, N-{1-[(dimethylamino)methyl]propyl}-2-[3-fluoro-5,5-dioxido-9-(trifluoromethyl)-6H-dibenzo[c,e][1,2]thiazin-6-yl]acetamide] | – | – | – | antigen-specific CD4+ T cell proliferation after cDC2 treatment (cDC2): suppress antigen-specific CD4+ T cell proliferation; Emax at 1 µM [1]: ~50%
Fe(III)-TMPyP [reference compound] | – | – | – | affinity for PrPC, previously reported [7]: high; EAE clinical score / disease severity [4]: ameliorate EAE severity; effect on Aβ-induced Fyn phosphorylation (Fyn kinase): prevented; effect on Aβ-induced decrease of post-synaptic markers (GluN2A, GluN2B, GluA1, GluA2, PSD-95) [5]: rescued
